Measured values taken from PubChem BioAssay AID2060624 (Molecular Pharmacology Branch, DTP, NCI, 2025).
pIC50: −log10 of the molar value.

System: 217524-143-R1-J4-PDC spheroids with HUVEC/MSC, viability
Experiment: Anticancer human tumor 217524-143-R1-J4-PDC patient-derived pancreatic carcinoma cell line growth inhibition [CLK]
Settings: for pIC50: curve of first compound; for viability, T/C: stronger effect = lower value
Method in brief: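 Multi-cell-type spheroids combined patient-derived tumor cells with HUVEC endothelial cells and human mesenchymal stem cells. Paired agents were dosed in half-log steps down from about clinical Cmax, or from 10 microM where Cmax was unknown.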

[1] = second compound 0.0316 µM, first compound 0.00949 µM
[2] = second compound 0.0316 µM, first compound 0.03 µM
[3] = second compound 0.0316 µM, first compound 0.0949 µM
[4] = second compound 0.0316 µM, first compound 0.3 µM
[5] = second compound 0.1 µM, first compound 0.00949 µM
[6] = second compound 0.1 µM, first compound 0.03 µM
[7] = second compound 0.1 µM, first compound 0.0949 µM
[8] = second compound 0.1 µM, first compound 0.3 µM
[9] = second compound 0.316 µM, first compound 0.00949 µM
[10] = second compound 0.316 µM, first compound 0.03 µM
[11] = second compound 0.316 µM, first compound 0.0949 µM
[12] = second compound 0.316 µM, first compound 0.3 µM
[13] = second compound 1 µM, first compound 0.00949 µM
[14] = second compound 1 µM, first compound 0.03 µM
[15] = second compound 1 µM, first compound 0.0949 µM
[16] = second compound 1 µM, first compound 0.3 µM
[17] = second compound 3.16 µM, first compound 0.00949 µM
[18] = second compound 3.16 µM, first compound 0.03 µM
[19] = second compound 3.16 µM, first compound 0.0949 µM
[20] = second compound 3.16 µM, first compound 0.3 µM
[21] = second compound 10 µM, first compound 0.00949 µM
[22] = second compound 10 µM, first compound 0.03 µM
[23] = second compound 10 µM, first compound 0.0949 µM
[24] = second compound 10 µM, first compound 0.3 µM
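Note: spheroids exposed to agents for seven days before reading.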
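Throughout, for viability, T/C: 100% = DMSO vehicle control viability.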

C=CC(=O)Nc1cc(Nc2nccc(-c3cn(C)c4ccccc34)n2)c(OC)cc1N(C)CCN(C)C + CN1CCN(c2cc(C(=O)Nc3cc4cc(-c5cnn(C)c5)ccc4cn3)ccn2)CC1
pIC50 (second compound 0.0316 µM): 6.90
pIC50 (second compound 0.1 µM): 7.49
pIC50 (second compound 0.316 µM): > 9.02
pIC50 (second compound 1 µM): > 9.02
pIC50 (second compound 3.16 µM): > 9.02
pIC50 (second compound 10 µM): > 9.02
viability, T/C (second compound 0.0316 µM, first compound 0.000949 µM): 79.8%
viability, T/C (second compound 0.0316 µM, first compound 0.003 µM): 63.2%
viability, T/C [1]: 82.2%
viability, T/C [2]: 72.5%
viability, T/C [3]: 56%
viability, T/C [4]: 32.5%
viability, T/C (second compound 0.1 µM, first compound 0.000949 µM): 57.5%
viability, T/C (second compound 0.1 µM, first compound 0.003 µM): 61.2%
viability, T/C [5]: 61.9%
viability, T/C [6]: 47.2%
viability, T/C [7]: 39.5%
viability, T/C [8]: 24.8%
viability, T/C (second compound 0.316 µM, first compound 0.000949 µM): 25.4%
viability, T/C (second compound 0.316 µM, first compound 0.003 µM): 27.2%
viability, T/C [9]: 22.9%
viability, T/C [10]: 22.5%
viability, T/C [11]: 19%
viability, T/C [12]: 12.6%
viability, T/C (second compound 1 µM, first compound 0.000949 µM): 2.17%
viability, T/C (second compound 1 µM, first compound 0.003 µM): 2.28%
viability, T/C [13]: 1.87%
viability, T/C [14]: 1.61%
viability, T/C [15]: 1.64%
viability, T/C [16]: 0.9%
viability, T/C (second compound 3.16 µM, first compound 0.000949 µM): 1.11%
viability, T/C (second compound 3.16 µM, first compound 0.003 µM): 0.99%
viability, T/C [17]: 1.06%
viability, T/C [18]: 0.81%
viability, T/C [19]: 1.04%
viability, T/C [20]: 0.71%
viability, T/C (second compound 10 µM, first compound 0.000949 µM): 0.22%
viability, T/C (second compound 10 µM, first compound 0.003 µM): 0.25%
viability, T/C [21]: 0.25%
viability, T/C [22]: 0.26%
viability, T/C [23]: 0.27%
viability, T/C [24]: 0.25%

NC(=O)C(=Cn1cnc(-c2cc(C(F)(F)F)cc(C(F)(F)F)c2)n1)c1cncnc1 + CN1CCN(c2cc(C(=O)Nc3cc4cc(-c5cnn(C)c5)ccc4cn3)ccn2)CC1
pIC50 (second compound 0.0316 µM): 7.66
pIC50 (second compound 0.1 µM): > 8.02
pIC50 (second compound 0.316 µM): > 8.02
pIC50 (second compound 1 µM): > 8.02
pIC50 (second compound 3.16 µM): > 8.02
pIC50 (second compound 10 µM): > 8.02
viability, T/C [1]: 80.7%
viability, T/C [2]: 39.1%
viability, T/C [3]: 22.3%
viability, T/C [4]: 21.2%
viability, T/C (second compound 0.0316 µM, first compound 0.949 µM): 23.1%
viability, T/C (second compound 0.0316 µM, first compound 3 µM): 17.8%
viability, T/C [5]: 35.9%
viability, T/C [6]: 23.7%
viability, T/C [7]: 14%
viability, T/C [8]: 15.4%
viability, T/C (second compound 0.1 µM, first compound 0.949 µM): 14.6%
viability, T/C (second compound 0.1 µM, first compound 3 µM): 10.6%
viability, T/C [9]: 10.8%
viability, T/C [10]: 8.91%
viability, T/C [11]: 4.48%
viability, T/C [12]: 4%
viability, T/C (second compound 0.316 µM, first compound 0.949 µM): 1.55%
viability, T/C (second compound 0.316 µM, first compound 3 µM): 0.81%
viability, T/C [13]: 0.79%
viability, T/C [14]: 0.59%
viability, T/C [15]: 0.94%
viability, T/C [16]: 0.88%
viability, T/C (second compound 1 µM, first compound 0.949 µM): 0.76%
viability, T/C (second compound 1 µM, first compound 3 µM): 1.07%
viability, T/C [17]: 0.72%
viability, T/C [18]: 0.67%
viability, T/C [19]: 0.62%
viability, T/C [20]: 0.55%
viability, T/C (second compound 3.16 µM, first compound 0.949 µM): 0.69%
viability, T/C (second compound 3.16 µM, first compound 3 µM): 0.68%
viability, T/C [21]: 0.2%
viability, T/C [22]: 0.17%
viability, T/C [23]: 0.21%
viability, T/C [24]: 0.22%
viability, T/C (second compound 10 µM, first compound 0.949 µM): 0.24%
viability, T/C (second compound 10 µM, first compound 3 µM): 0.2%

Nc1ccccc1NC(=O)c1ccc(CNC(=O)OCc2cccnc2)cc1 + CN1CCN(c2cc(C(=O)Nc3cc4cc(-c5cnn(C)c5)ccc4cn3)ccn2)CC1
pIC50 (second compound 0.0316 µM): 5.43
pIC50 (second compound 0.1 µM): 5.70
pIC50 (second compound 0.316 µM): > 7.50
pIC50 (second compound 1 µM): > 7.50
pIC50 (second compound 3.16 µM): > 7.50
pIC50 (second compound 10 µM): > 7.50
viability, T/C (second compound 0.0316 µM, first compound 0.0316 µM): 84.2%
viability, T/C (second compound 0.0316 µM, first compound 0.1 µM): 84.9%
viability, T/C (second compound 0.0316 µM, first compound 0.316 µM): 80.2%
viability, T/C (second compound 0.0316 µM, first compound 1 µM): 66.5%
viability, T/C (second compound 0.0316 µM, first compound 3.16 µM): 57.4%
viability, T/C (second compound 0.0316 µM, first compound 10 µM): 23.1%
viability, T/C (second compound 0.1 µM, first compound 0.0316 µM): 65.5%
viability, T/C (second compound 0.1 µM, first compound 0.1 µM): 61.1%
viability, T/C (second compound 0.1 µM, first compound 0.316 µM): 63.5%
viability, T/C (second compound 0.1 µM, first compound 1 µM): 60.8%
viability, T/C (second compound 0.1 µM, first compound 3.16 µM): 42.6%
viability, T/C (second compound 0.1 µM, first compound 10 µM): 19.9%
viability, T/C (second compound 0.316 µM, first compound 0.0316 µM): 18.9%
viability, T/C (second compound 0.316 µM, first compound 0.1 µM): 20.2%
viability, T/C (second compound 0.316 µM, first compound 0.316 µM): 27.3%
viability, T/C (second compound 0.316 µM, first compound 1 µM): 39.2%
viability, T/C (second compound 0.316 µM, first compound 3.16 µM): 28.9%
viability, T/C (second compound 0.316 µM, first compound 10 µM): 5.46%
viability, T/C (second compound 1 µM, first compound 0.0316 µM): 1.9%
viability, T/C (second compound 1 µM, first compound 0.1 µM): 1.63%
viability, T/C (second compound 1 µM, first compound 0.316 µM): 1.82%
viability, T/C (second compound 1 µM, first compound 1 µM): 1.83%
viability, T/C (second compound 1 µM, first compound 3.16 µM): 0.8%
viability, T/C (second compound 1 µM, first compound 10 µM): 0.38%
viability, T/C (second compound 3.16 µM, first compound 0.0316 µM): 0.79%
viability, T/C (second compound 3.16 µM, first compound 0.1 µM): 1.03%
viability, T/C (second compound 3.16 µM, first compound 0.316 µM): 0.98%
viability, T/C (second compound 3.16 µM, first compound 1 µM): 0.64%
viability, T/C (second compound 3.16 µM, first compound 3.16 µM): 0.44%
viability, T/C (second compound 3.16 µM, first compound 10 µM): 0.54%
viability, T/C (second compound 10 µM, first compound 0.0316 µM): 0.13%
viability, T/C (second compound 10 µM, first compound 0.1 µM): 0.21%
viability, T/C (second compound 10 µM, first compound 0.316 µM): 0.25%
viability, T/C (second compound 10 µM, first compound 1 µM): 0.2%
viability, T/C (second compound 10 µM, first compound 3.16 µM): 0.23%
viability, T/C (second compound 10 µM, first compound 10 µM): 0.3%
